Measurements from PubChem BioAssay (NCI).
“And” between values parts separate entries of the source, which are not always exact repeats. Identical values can stand only once.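 Where inhibition never reached the appropriate level, the endpoint shown equals the highest concentration tested. Otherwise, values were interpolated linearly from a five-concentration, 48-hour dose response in 96-well plates. The concentration for 50% growth inhibition is given as GI50. TGI is the concentration that stops growth completely.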

What was measured:
Experiment in all cases: NCI tumour cell line growth inhibition, 48 h
[1] = test system: HL-60(TB) leukemia
[2] = test system: NCI-H460 lung
[3] = test system: MDA-N
[4] = test system: UACC-62 melanoma
[5] = test system: SF-539 CNS
[6] = test system: KM12 colon
[7] = test system: HCC-2998 colon
[8] = test system: MCF7 breast
[9] = test system: U251 CNS
[10] = test system: UO-31 renal
[11] = test system: SK-OV-3 ovarian
[12] = test system: NCI/ADR-RES ovarian
[13] = test system: HOP-92 NSCLC
[14] = test system: IGROV1 ovarian
[15] = test system: SN12C renal
[16] = test system: SF-268 CNS
[17] = test system: SNB-75 CNS
[18] = test system: UACC-257 melanoma
[19] = test system: HCT-116 colon
[20] = test system: RXF 393 renal
[21] = test system: HOP-62 NSCLC
[22] = test system: SF-295 CNS
[23] = test system: OVCAR-8 ovarian
[24] = test system: COLO 205 colon
[25] = test system: TK-10 renal
[26] = test system: SR leukemia
[27] = test system: HCT-15 colon
[28] = test system: M14 melanoma
[29] = test system: SNB-19 CNS
[30] = test system: SK-MEL-5 melanoma
[31] = test system: 786-0 renal
[32] = test system: NCI-H23 lung
[33] = test system: MALME-3M melanoma
[34] = test system: EKVX NSCLC
[35] = test system: CAKI-1 renal
[36] = test system: NCI-H226 lung
[37] = test system: SW-620 colon
[38] = test system: BT-549 breast
[39] = test system: NCI-H522 lung
[40] = test system: RPMI-8226 leukemia
[41] = test system: PC-3 prostate
[42] = test system: OVCAR-5 ovarian
[43] = test system: HT29 colon
[44] = test system: ACHN renal
[45] = test system: CCRF-CEM leukemia
[46] = test system: SK-MEL-2 melanoma
[47] = test system: OVCAR-3 ovarian
[48] = test system: OVCAR-4 ovarian
[49] = test system: DU-145 prostate
[50] = test system: MOLT-4 leukemia
[51] = test system: K-562 leukemia
[52] = test system: A549 NSCLC
[53] = test system: SK-MEL-28 melanoma
[54] = test system: MDA-MB-231 breast
[55] = test system: HS 578T breast
[56] = test system: LOX IMVI melanoma
[57] = test system: T-47D breast
[58] = test system: MDA-MB-435
[59] = test system: A498 renal

In the case of `N#C/C(=C\c1cc(Br)c(O)c(Br)c1)c1ccccn1`, the TGI [1] was over 100 µM, the TGI [2] was over 100 µM and the TGI [3] was over 100 µM. It also gave a TGI [4] of over 100 µM, a TGI [5] of over 100 µM and a TGI [6] of over 100 µM. It also gave a TGI [7] of over 100 µM, a TGI [8] of over 100 µM and a TGI [9] of 60 µM. For the same compound, the TGI [10] was over 100 µM, the TGI [11] was over 100 µM and the TGI [12] was over 100 µM. The TGI [13] was 46.2 µM, the TGI [14] was over 100 µM and the TGI [15] was over 100 µM. It also gave a TGI [16] of over 100 µM, a TGI [17] of over 100 µM and a TGI [18] of over 100 µM. The TGI [19] was over 100 µM, the TGI [20] was over 100 µM and the TGI [21] was over 100 µM. The TGI [22] was over 100 µM, the TGI [23] was over 100 µM and the TGI [24] was over 100 µM. For the same compound, the TGI [25] was over 100 µM, the TGI [26] was over 100 µM and the TGI [27] was over 100 µM. The TGI [28] was over 100 µM, the TGI [29] was over 100 µM and the TGI [30] was over 100 µM. The TGI [31] was over 100 µM, the TGI [32] was over 100 µM and the TGI [33] was 68.3 µM. The TGI [34] was over 100 µM, the TGI [35] was over 100 µM and the TGI [36] was over 100 µM. For the same compound, the TGI [37] was over 100 µM, the TGI [38] was over 100 µM and the TGI [39] was over 100 µM. It also gave a TGI [40] of over 100 µM, a TGI [41] of over 100 µM and a TGI [42] of over 100 µM. For the same compound, the TGI [43] was over 100 µM, the TGI [44] was over 100 µM and the TGI [45] was over 100 µM. For the same compound, the TGI [46] was over 100 µM, the TGI [47] was over 100 µM and the TGI [48] was over 100 µM. It also gave a TGI [49] of over 100 µM, a TGI [50] of over 100 µM and a TGI [51] of over 100 µM. It also gave a TGI [52] of over 100 µM and a TGI [53] of over 100 µM.

With `CCC[C@H](N[C@H]1CCc2cc(F)cc(F)c2C1)C(=O)Nc1cn(C(C)(C)CNCC(C)(C)C)cn1` the GI50 [1] was 13.9 µM and 22.4 µM, the TGI [1] was 43.3 µM and > 100 µM and the GI50 [54] was 15.3 µM and 12.9 µM. For the same compound, the TGI [54] was 45.3 µM and 41.2 µM, the GI50 [2] was 25.3 µM and 21.6 µM and the TGI [2] was over 100 µM. The GI50 [55] was 16.3 µM and 13.1 µM, the TGI [55] was > 100 µM and 93.5 µM and the GI50 [4] was 16.8 µM. The TGI [4] was 45.8 µM, the GI50 [56] was 15.5 µM and 16.1 µM and the TGI [56] was 34.3 µM and 35.9 µM. The GI50 [5] was 19 µM and 27.8 µM, the TGI [5] was 47.3 µM and > 100 µM and the GI50 [6] was 26.9 µM and 27 µM. For the same compound, the TGI [6] was over 100 µM, the GI50 [7] was 22.3 µM and 24.9 µM and the TGI [7] was over 100 µM. The GI50 [8] was 16.3 µM and 11.7 µM, the TGI [8] was > 64.4 µM and 83.7 µM and the GI50 [9] was 17.6 µM and 19.3 µM. The TGI [9] was over 100 µM, the GI50 [10] was 5.72 µM and 4.1 µM and the TGI [10] was 30 µM and 27.7 µM. The GI50 [11] was 37.2 µM and 40.3 µM, the TGI [11] was over 100 µM and the GI50 [12] was 17.2 µM and 20.6 µM. For the same compound, the TGI [12] was over 100 µM, the GI50 [13] was 5.6 µM and 2.52 µM and the TGI [13] was 40.1 µM and 27.2 µM. The GI50 [14] was 42.6 µM and 31.5 µM, the TGI [14] was over 100 µM and the GI50 [15] was 28.6 µM and 17.5 µM. For the same compound, the TGI [15] was over 100 µM, the GI50 [16] was 21.8 µM and 16.5 µM and the TGI [16] was over 100 µM. For the same compound, the GI50 [17] was 18.2 µM and 13.8 µM, the TGI [17] was over 100 µM and the GI50 [18] was 13.7 µM and 12.9 µM. For the same compound, the TGI [18] was 61.9 µM and 40.4 µM, the GI50 [19] was 7.27 µM and 10.9 µM and the TGI [19] was 23.3 µM and 28.6 µM. The GI50 [57] was 9.83 µM and 14.2 µM, the TGI [57] was over 100 µM and the TGI [20] was 39.9 µM and 13.4 µM. The GI50 [21] was 33.3 µM and 53.3 µM, the TGI [21] was over 100 µM and the GI50 [22] was 23.6 µM and 18.5 µM. For the same compound, the TGI [22] was over 100 µM, the GI50 [23] was 31.7 µM and 26 µM and the TGI [23] was over 100 µM. For the same compound, the GI50 [24] was 14 µM and 14.4 µM, the TGI [24] was 28.6 µM and 29.1 µM and the GI50 [25] was 25.1 µM and 28.9 µM. For the same compound, the TGI [25] was over 100 µM, the GI50 [26] was 19.3 µM and 14 µM and the TGI [26] was > 100 µM and 91.1 µM. For the same compound, the GI50 [58] was 21.3 µM and 21.5 µM, the TGI [58] was over 100 µM and the GI50 [27] was 20.1 µM and 16.3 µM. The TGI [27] was over 100 µM, the GI50 [28] was 13.8 µM and 14.8 µM and the TGI [28] was 41.2 µM and 46.6 µM. The GI50 [29] was 35.2 µM and 29.7 µM, the TGI [29] was over 100 µM and the GI50 [30] was 15.2 µM and 13 µM. The TGI [30] was 29.6 µM and 26.2 µM, the GI50 [31] was 14.2 µM and 32.5 µM and the TGI [31] was 49.8 µM and > 100 µM. The GI50 [32] was 24.1 µM and 22.4 µM, the TGI [32] was over 100 µM and the GI50 [33] was 11 µM and 12.9 µM. The TGI [33] was 28.5 µM and 29.5 µM, the GI50 [34] was 24.2 µM and 21.3 µM and the TGI [34] was over 100 µM. For the same compound, the GI50 [35] was 7.69 µM and 4.75 µM, the TGI [35] was > 47.6 µM and 42.9 µM and the GI50 [36] was 26.5 µM and 14.1 µM. The TGI [36] was > 100 µM and 92.9 µM, the GI50 [59] was 3.85 µM and 19.2 µM and the TGI [59] was > 48.1 µM and 87.8 µM. The GI50 [37] was 23.7 µM and 23.3 µM, the TGI [37] was over 100 µM and the GI50 [38] was 14.9 µM and 21 µM. For the same compound, the TGI [38] was 72.2 µM and 86.2 µM, the GI50 [39] was 23.9 µM and 13.4 µM and the TGI [39] was > 100 µM and 69.6 µM. The GI50 [40] was 9.57 µM and 11 µM, the TGI [40] was 48.8 µM and 69 µM and the GI50 [41] was 10.9 µM and 12.4 µM. For the same compound, the TGI [41] was over 100 µM, the GI50 [42] was 27 µM and 22.6 µM and the TGI [42] was over 100 µM. For the same compound, the GI50 [43] was 10.4 µM and 11.9 µM, the TGI [43] was 29.5 µM and 28.8 µM and the GI50 [44] was 26.3 µM and 23.2 µM. For the same compound, the TGI [44] was over 100 µM, the GI50 [45] was 24.5 µM and 20.7 µM and the TGI [45] was over 100 µM. The GI50 [46] was 16.8 µM and 15.1 µM, the TGI [46] was 42 µM and 37.2 µM and the GI50 [47] was 19.9 µM and 16.6 µM. For the same compound, the TGI [47] was > 100 µM and 77.6 µM, the GI50 [48] was 23.6 µM and 16.1 µM and the TGI [48] was over 100 µM. The GI50 [49] was 34.8 µM and 35.9 µM, the TGI [49] was over 100 µM and the GI50 [50] was 6.93 µM and 7.84 µM. For the same compound, the TGI [50] was over 100 µM, the GI50 [51] was 5.6 µM and 12.1 µM and the TGI [51] was over 100 µM. The GI50 [52] was 23.1 µM and 21.5 µM, the TGI [52] was over 100 µM and the GI50 [53] was 19 µM and 18 µM. For the same compound, the TGI [53] was 52.9 µM and 54.8 µM.
